Target: 5-hydroxytryptamine receptor 6 (Homo sapiens, UniProt P50406)
Experiment: Displacement of [3H]-LSD from human 5-HT6R expressed in HEK293 cells
Assay type: cell-based

Chain of 5-hydroxytryptamine receptor 6 (P50406 whole entry): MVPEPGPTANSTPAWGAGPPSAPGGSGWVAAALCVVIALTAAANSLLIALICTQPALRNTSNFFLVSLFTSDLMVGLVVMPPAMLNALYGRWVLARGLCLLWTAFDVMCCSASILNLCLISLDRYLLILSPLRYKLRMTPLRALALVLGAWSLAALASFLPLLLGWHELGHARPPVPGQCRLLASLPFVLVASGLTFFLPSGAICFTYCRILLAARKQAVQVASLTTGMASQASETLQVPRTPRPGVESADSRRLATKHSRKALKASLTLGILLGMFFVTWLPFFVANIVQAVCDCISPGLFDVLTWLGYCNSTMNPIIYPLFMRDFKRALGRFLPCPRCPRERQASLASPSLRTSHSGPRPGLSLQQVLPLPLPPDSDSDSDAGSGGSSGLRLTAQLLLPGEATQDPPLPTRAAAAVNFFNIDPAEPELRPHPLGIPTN

Row | Structure (SMILES) | Ki [nM]
1 | CN1CCN(c2nc(N)nc(Cc3c[nH]c4ccccc34)n2)CC1 | 22
2 | COc1ccccc1Cc1nc(N)nc(N2CCN(C)CC2)n1 | 193
3 | CN1CCN(c2nc(N)nc(Cc3ccccc3Cl)n2)CC1 | 56
4 | CN1CCN(c2nc(N)nc(Cc3cccs3)n2)CC1 | 305
5 | Cc1ccc(Cc2nc(N)nc(N3CCN(C)CC3)n2)cc1 | 64
6 | CN1CCN(c2nc(N)nc(Cc3ccccc3F)n2)CC1 | 88
7 | CN1CCN(c2nc(N)nc(Cc3ccccc3)n2)CC1 | 95
8 | CN1CCN(c2nc(N)nc(Cc3ccc(Cl)c(Cl)c3)n2)CC1 | 32
9 | Cc1ccccc1Cc1nc(N)nc(N2CCN(C)CC2)n1 | 80
10 | CN1CCN(c2nc(N)nc(Cc3ccncc3)n2)CC1 | 1830
11 | COc1cccc(Cc2nc(N)nc(N3CCN(C)CC3)n2)c1 | 158
12 | CN1CCN(c2nc(N)nc(Cc3cccc4ccccc34)n2)CC1 | 20
13 | CN1CCN(c2nc(N)nc(Cc3ccc(F)cc3)n2)CC1 | 100
14 | CN1CCN(c2nc(N)nc(Cc3cccc(Cl)c3)n2)CC1 | 28
15 | CN1CCN(c2nc(N)nc(Cc3cccc(F)c3)n2)CC1 | 64
16 | COc1ccc(Cc2nc(N)nc(N3CCN(C)CC3)n2)cc1 | 440

Test system: Rattus norvegicus
Experiment: Antidepressant activity in Wistar rat assessed as decrease in immobility time at 0.3 mg/kg, ip administered 60 mins prior to testing measured for 5 mins by forced swim test
Assay type: functional
Parameters: scale not given: the % may be the effect or the level left

Row | Structure (SMILES) | Activity [%]
17 | CN1CCN(c2nc(N)nc(Cc3c[nH]c4ccccc34)n2)CC1 | 37
18 | Cc1cccc(Cc2nc(N)nc(N3CCN(C)CC3)n2)c1 | 30
19 | CN1CCN(c2nc(N)nc(Cc3cccc(Cl)c3)n2)CC1 | 29

Source: ChEMBL document CHEMBL4033662, “The computer-aided discovery of novel family of the 5-HT6 serotonin receptor ligands among derivatives of 4-benzyl-1,3,5-triazine” (Eur J Med Chem, 2017)
